Assay results published in patent US7947676B2, “Pyrazolo[3,4-d]pyrimidine compounds as antitumor agents” (AstraZeneca AB, priority 2004, dated 2011).

Experiments:
EGFR tyrosine kinase = target: T1, EGFR tyrosine kinase (Homo sapiens, UniProt P00533); assay: Protein tyrosine kinase phosphorylation assay, Test (a), EGFR; assay type: biochemical; conditions: recombinant intracellular fragment, ATP at Km concentration; read-out: IC50 (μM) Test (a): Inhibition of EGFR tyrosine kinase protein phosphorylation
T1 construct: Recombinant intracellular fragments of EGFR, erbB2 and erbB4; made in house; host or cells: baculovirus/Sf21 insect cells (cleared lysate)
Method: (§1) This test measures the ability of a test compound to inhibit the phosphorylation of a tyrosine containing polypeptide substrate by EGFR, erbB2 and erbB4 tyrosine kinase enzyme.
(§2) Recombinant intracellular fragments of EGFR, erbB2 and erbB4 (accession numbers X00588, X03363 and L07868 respectively) were cloned and expressed in the baculovirus/Sf21 system. […]
(§3) Constitutive kinase activity of these recombinant proteins was determined by their ability to phosphorylate a synthetic peptide (made up of a random co-polymer of Glutamic Acid, Alanine and Tyrosine in the ratio of 6:3:1). […]
(§4) The immobilised phospho-peptide product of the reaction was detected by immunological methods. […] After further washing, HRP activity in each well of the plate was measured colorimetrically using 22′-Azino-di-[3-ethylbenzthiazoline sulfonate (6)] diammonium salt crystals (ABTS™ from Roche) as a substrate.
(§5) Kinase inhibition for a given compound was expressed as an IC50 value. […] The range of phosphorylation was calculated from the positive (vehicle plus ATP) and negative (vehicle minus ATP) control values.

erbB2 = target: T2, erbB2 (Homo sapiens, UniProt P04626); assay: Clone 24 phospho-erbB2 cell assay, Test (d); assay type: cell-based; conditions: MCF7 derived cell line (Clone 24) overexpressing erbB2, 4 hours; read-out: IC50 (μM) Test (d): Inhibition of phosphorylation of erbB2
T2 construct: to give a cell line that overexpresses full length wild type erbB2 protein; expressed in transfected cells; host or cells: MCF7 (breast carcinoma) derived 'Clone 24' cells
Method: The cells were resuspended in Growth Medium.
Plates were returned to the incubator for 4 hours and then 20 μl of 20% formaldehyde solution in PBS was added to each well and the plate was left at room temperature for 30 minutes. This fixative solution was removed with a multichannel pipette, 100 μl of PBS was added to each well and then removed with a multichannel pipette and then 50 μl PBS was added to each well. Plates were then sealed and stored for up to 2 weeks at 4° C.
Immunostaining was performed at room temperature. […] Then this primary antibody solution was removed from the wells using a plate washer followed by two 200 μl PBS/Tween 20 washes using a plate washer. […] From now onwards, wherever possible, plates were protected from light exposure, at this stage by sealing with black backing tape.
The Fluorescence signal is each well was measured using an Acumen Explorer Instrument (Acumen Bioscience Ltd.), a plate reader that can be used to rapidly quantitate features of images generated by laser-scanning. […] Fluorescence dose response data obtained with each compound was exported into a suitable software package (such as Origin) to perform curve fitting analysis. Inhibition of erbB2 phosphorylation was expressed as an IC50 value.

erbB2 tyrosine kinase = target: T3, erbB2 tyrosine kinase (Homo sapiens, UniProt P04626); assay: Protein tyrosine kinase phosphorylation assay, Test (a), erbB2; assay type: biochemical; conditions: recombinant intracellular fragment, ATP at Km concentration; read-out: IC50 (μM) Test (a): Inhibition of erbB2 tyrosine kinase protein phosphorylation
T3 construct: Recombinant intracellular fragments of EGFR, erbB2 and erbB4; made in house; host or cells: baculovirus/Sf21 insect cells (cleared lysate)
Method: as §1, §2, §3, §4, §5

T2 sequence (P04626 23-1255): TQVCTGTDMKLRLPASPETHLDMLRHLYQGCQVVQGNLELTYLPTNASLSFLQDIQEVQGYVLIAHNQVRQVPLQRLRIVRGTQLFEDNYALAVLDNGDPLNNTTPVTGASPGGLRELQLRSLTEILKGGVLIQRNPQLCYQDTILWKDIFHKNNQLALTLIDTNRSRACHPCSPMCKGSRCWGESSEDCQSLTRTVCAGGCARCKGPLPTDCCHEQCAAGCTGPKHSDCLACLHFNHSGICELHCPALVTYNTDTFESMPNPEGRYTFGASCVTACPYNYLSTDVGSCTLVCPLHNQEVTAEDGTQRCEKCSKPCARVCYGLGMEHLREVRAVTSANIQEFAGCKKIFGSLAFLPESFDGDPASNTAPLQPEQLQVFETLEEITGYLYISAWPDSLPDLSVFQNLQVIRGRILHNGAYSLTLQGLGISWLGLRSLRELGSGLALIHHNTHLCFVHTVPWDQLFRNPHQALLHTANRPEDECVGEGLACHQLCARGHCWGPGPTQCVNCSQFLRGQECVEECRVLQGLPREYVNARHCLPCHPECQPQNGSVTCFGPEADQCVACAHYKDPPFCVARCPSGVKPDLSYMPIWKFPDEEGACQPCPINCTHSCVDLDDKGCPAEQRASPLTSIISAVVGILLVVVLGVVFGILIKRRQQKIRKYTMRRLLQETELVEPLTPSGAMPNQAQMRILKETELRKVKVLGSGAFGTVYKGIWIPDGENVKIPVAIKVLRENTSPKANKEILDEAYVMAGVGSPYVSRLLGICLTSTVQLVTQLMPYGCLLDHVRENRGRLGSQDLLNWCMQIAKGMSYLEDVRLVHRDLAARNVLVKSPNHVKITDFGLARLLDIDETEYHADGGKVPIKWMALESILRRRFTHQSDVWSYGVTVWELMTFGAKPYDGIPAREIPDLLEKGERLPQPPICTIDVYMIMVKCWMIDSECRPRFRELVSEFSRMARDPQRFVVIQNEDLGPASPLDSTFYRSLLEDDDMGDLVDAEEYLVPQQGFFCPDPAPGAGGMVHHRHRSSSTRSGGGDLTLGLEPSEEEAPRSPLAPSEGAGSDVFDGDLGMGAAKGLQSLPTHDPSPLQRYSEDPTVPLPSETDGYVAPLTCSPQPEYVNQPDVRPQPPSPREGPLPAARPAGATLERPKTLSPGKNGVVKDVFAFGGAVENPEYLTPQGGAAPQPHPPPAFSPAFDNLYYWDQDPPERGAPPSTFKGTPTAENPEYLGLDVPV
T3 sequence (P04626 676-1255 limits assumed): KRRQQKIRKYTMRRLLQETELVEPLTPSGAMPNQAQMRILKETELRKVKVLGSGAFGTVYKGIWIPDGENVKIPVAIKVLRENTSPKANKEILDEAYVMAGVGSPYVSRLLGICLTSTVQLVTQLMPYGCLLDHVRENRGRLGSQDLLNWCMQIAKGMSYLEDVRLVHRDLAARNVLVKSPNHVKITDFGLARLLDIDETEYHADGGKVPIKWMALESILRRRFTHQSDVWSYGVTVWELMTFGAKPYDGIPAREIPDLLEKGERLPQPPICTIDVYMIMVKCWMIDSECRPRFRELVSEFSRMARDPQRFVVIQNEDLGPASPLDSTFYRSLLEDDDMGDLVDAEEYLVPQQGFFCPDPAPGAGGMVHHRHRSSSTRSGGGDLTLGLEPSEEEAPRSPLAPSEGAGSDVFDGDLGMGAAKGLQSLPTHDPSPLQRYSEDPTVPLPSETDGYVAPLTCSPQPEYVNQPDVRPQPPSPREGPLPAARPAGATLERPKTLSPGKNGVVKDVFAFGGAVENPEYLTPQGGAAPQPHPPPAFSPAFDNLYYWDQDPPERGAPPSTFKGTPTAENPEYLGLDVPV
T1 sequence (P00533 669-1210 limits assumed): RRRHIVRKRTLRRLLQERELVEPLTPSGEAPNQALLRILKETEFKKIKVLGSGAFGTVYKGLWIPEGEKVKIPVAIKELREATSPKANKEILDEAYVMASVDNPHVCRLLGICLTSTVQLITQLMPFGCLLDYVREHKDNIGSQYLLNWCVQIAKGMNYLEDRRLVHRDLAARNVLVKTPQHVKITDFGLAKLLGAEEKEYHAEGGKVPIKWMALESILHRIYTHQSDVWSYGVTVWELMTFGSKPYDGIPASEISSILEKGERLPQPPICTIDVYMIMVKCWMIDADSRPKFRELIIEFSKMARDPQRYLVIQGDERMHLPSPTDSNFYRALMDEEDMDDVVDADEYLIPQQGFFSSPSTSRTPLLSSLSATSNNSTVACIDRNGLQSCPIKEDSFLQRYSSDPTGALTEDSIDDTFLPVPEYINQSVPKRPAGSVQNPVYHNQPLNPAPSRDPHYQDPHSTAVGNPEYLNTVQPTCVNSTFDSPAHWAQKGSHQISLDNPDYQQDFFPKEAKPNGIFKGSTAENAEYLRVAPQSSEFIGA

- IC50 (EGFR tyrosine kinase): 0.71 µM
- IC50 (erbB2): 0.083 µM
- IC50 (erbB2 tyrosine kinase): 0.027 µM
SMILES: Cc1ccc(Oc2ccc(Nc3ncnc4[nH]nc(OCCN5CCOCC5)c34)cc2C)cn1 [Example 42, N-{3-methyl-4-[(6-methylpyridin-3-yl)oxy]phenyl}-3-(2-morpholin-4-ylethoxy)-1H-pyrazolo[3,4-d]pyrimidin-4-amine]
